Measured values as given in publication PMC3789979, “Recruitment of a Cytoplasmic Chaperone Relay by the A2A Adenosine Receptor” (The Journal of Biological Chemistry, 2013).
Where two headings read alike, the source gives them in different places.

Columns and labels:
[1] = tested on: A2A receptor glycoforms, HEK293 cells stably expressing G2S-N-A2AR; assay: Immunoblot of A2A receptor glycoforms after HSP90 inhibitor treatment; assay type: cell-based, human; details: saturating concentrations, 24 h
Experimental: (§1) Cells (1–5 × 10^7 cells) were harvested, and membranes were prepared as described previously ([14]). Membranes were solubilized as described above, followed by incubation with streptavidin-conjugated beads (G2S-N-A2A) or Strep-Tactin-Sepharose beads (FSt2-N-A2A) for 2 h at 4 °C. […] Thereafter, preequilibrated protein G-Sepharose beads were added and incubated for an additional 3 h at 4 °C. The beads were washed twice with 0.5 ml of solubilization buffer. […] A2A receptor and HSP90 were detected by immunoblotting using either anti-A2AR or anti-FLAG and anti-HSP90α (Abcam, Cambridge, UK) antibodies, respectively. As a control, membranes were harvested from untransfected HEK293 cells and processed in parallel. Immunoblots were quantified as described above. Where required, nitrocellulose membranes of primary and secondary antibody labeling were stripped by incubation with KSCN buffer (3 M KSCN, 150 mM KCl, 10 mM NaH2PO4, 100 mg/liter polyvinylpyrrolidone K30, 1-ethenylpyrrolidin-2-one) for 20 min at 23 °C to afford detection of additional proteins with the pertinent antibodies (i.e. anti-HSP90β, anti-HSC70, anti-HOP, anti-P23, and anti-CHIP, all from Abcam).
FIGURE 5. […] Statistical significance was calculated by analysis of variance followed by Dunnett's multiple-comparison post hoc test (*, p < 0.05; ***, p < 0.001). […]

[2] = tested on: A2A receptor-chaperone complexes, HEK293 cells stably expressing FS2-N-A2AR; assay: Co-affinity precipitation of receptor-chaperone complexes after inhibitor treatment; assay type: cell-based, human; details: 17-DMAG 2 μM; for amount of HSP90 co-affinity-purified with the A2A receptor / association of HSP70 with the A2A receptor / higher glycosylated, mature form of the co-purified A2A receptor (ratio mature/core): 24 h, kifunensine 2 μM, bortezomib 10 nM
Experimental: as §1
FIGURE 7. […] B, immunoblots done as in A (top) were analyzed with ImageJ. […] C, the A2A receptor was immunoprecipitated from cells that had been incubated in the presence and absence of 17-DMAG (2 μM) as in A. The levels of HSC70 (C, top), HOP (C, second from top), P23 (C, third from top), and CHIP (C, bottom) were determined by immunoblotting and quantified with ImageJ.

[3] = tested on: A2A receptor-chaperone complexes in PC12 cells; assay: Immunoprecipitation of endogenous A2A receptor from inhibitor-pretreated PC12 cells and immunoblotting; assay type: cell-based; details: for fully glycosylated, slowly migrating band of the A2A receptor: kifunensine 2 μM, bortezomib 10 nM
Experimental: as §1
(§2) FIGURE 9. Effect of HSP90 and/or proteasome inhibitors on the levels of endogenously expressed A2A receptor in PC12 cells. […] B, prior to membrane preparations of PC12 cells expressing the A2A receptor, cells were incubated in the absence and presence of 17-DMAG (2 μM), kifunensine (2 μM), and bortezomib (10 nM). […] After two washes, surface-bound radioligand was released by an acid strip and recovered in the supernatant. Assays were performed in quadruplicates. […] After membrane extraction and immunoprecipitation, aliquots (corresponding to 3 × 10^5 cells) of the immunoprecipitate were blotted for the A2A receptor (top), HSP90α, HSP70–1A, HOP, P23, and CHIP, as indicated. M, mature; C, core glycosylated.

[4] = design: method as in PMID 20177028; details: administered to people; cited from earlier work
[5] = tested on: cell surface levels of the A2A receptor, HEK293 cells stably expressing FS2-N-A2AR; assay: Cell surface levels of the A2A receptor after 24 h HSP90 inhibitor treatment (acid-strip-sensitive [3H]ZM241385 binding); assay type: cell-based, human; details: for EC50 relative to affinity for binding to HSP90: EC50 higher than HSP90 affinity of refs 27, 28
Experimental: (§3) After 60 min at 23 °C, the reaction was terminated by rapid filtration over glass fiber filters (Whatman-GE Healthcare). […] Total receptor numbers were also determined by measuring the radioactivity released after dissolving the samples in 1 M NaOH ([22]). […] The number of viable cells was determined manually using a microscope counting chamber.
FIGURE 5. […] Error bars, S.D. Data are from four independent experiments done in triplicate. Statistical significance was calculated by analysis of variance followed by Dunnett's multiple-comparison post hoc test (*, p < 0.05; ***, p < 0.001). B, HEK293 cells stably expressing the tagged version G2S-N-A2AR were incubated with increasing concentrations of radicicol or 17-DMAG.

[6] = tested on: endogenously expressed A2A receptor in PC12 cells; assay: [3H]ZM241385 binding to membranes of inhibitor-pretreated PC12 cells; assay type: cell-based; details: for levels of functional (binding-competent) receptors: 24 h pretreatment, 2 μM, 10 nM [3H]ZM241385, PC12 membranes; for increase in steady state levels of active A2A receptors: PC12 cells, kifunensine 2 μM, bortezomib 10 nM
Experimental: as §3, §2

Compound | core glycosylated band of the A2A receptor (immunoblot) [1] | associated CHIP [2] | associated P23 [2] | co-precipitated HOP [2] | co-precipitated HSC70 [2] | amount of HSP90 co-affinity-purified with the A2A receptor [2] | association of HSP70 with the A2A receptor [2] | higher glycosylated, mature form of the co-purified A2A receptor (ratio mature/core) [2] | HSP90α, HSP70-1A and HSC70 recovered in the immunoprecipitate ([3]; 17-DMAG 2 μM, 24 h) | fully glycosylated, slowly migrating band of the A2A receptor ([3]; 24 h, 17-DMAG 2 μM) | HOP recovered with the A2A receptor ([3]; pretreatment with DMAG) | P23 and CHIP recovered with the A2A receptor ([3]; pretreatment with DMAG) | half-life [4] [h] | EC50 ([5]; 24 h incubation, acid-strip-sensitive [3H]ZM241385 binding, read-out: EC50 for increase in cell surface levels of the A2A receptor) [nM] | EC50 relative to affinity for binding to HSP90 [5] | levels of functional (binding-competent) receptors [6] | increase in steady state levels of active A2A receptors [6] | EC50 ([5]; Homo sapiens, HEK293, read-out: EC50 for increase in cell surface levels of the A2A receptor) [nM]
CO[C@H]1/C=C\C=C(/C)C(=O)NC2=CC(=O)C(NCCN(C)C)=C(C[C@@H](C)C[C@H](OC)[C@H](O)[C@@H](C)/C=C(\C)[C@@H]1OC(N)=O)C2=O [17-DMAG, 17-dimethylaminoethylamino-17-demethoxygeldanamycin] | increased accumulation | decline | decrease in associated P23 (HSP90 co-chaperone), but this did not reach statistical significance | substantial increase | substantial increase | increased | augmented | significant increase | abundant amounts | increased the abundance | more | less | 24 | ~1000 | about 3 fold | increased | – | –
CC(C)C[C@H](NC(=O)[C@H](Cc1ccccc1)NC(=O)c1cnccn1)B(O)O [bortezomib] | – | – | – | – | – | did not cause the accumulation | did not cause the accumulation | significant increase | – | increased the abundance | – | – | – | – | – | – | about 1.5 fold | –
O=C1N[C@@H]2[C@@H](O)[C@@H](O)[C@H](O)[C@@H](CO)N2C1=O [kifunensine] | – | – | – | – | – | accumulation | accumulation | no significant increase | – | increased the abundance | – | – | – | – | – | increased | about 1.5 fold | –
C[C@@H]1C[C@H]2O[C@@H]2/C=C\C=C\C(=O)Cc2c(Cl)c(O)cc(O)c2C(=O)O1 [radicicol] | increased accumulation | – | – | – | – | – | – | – | – | – | – | – | – | – | about 3 fold | – | – | ~400
